According to patent US11891415B2, “Depsipeptides and uses thereof” (NovoBiotic Pharmaceuticals, LLC, priority 2017, dated 2024):

Experiments:
MRSA ATCC 33591 = test: Mouse septicemia model; settings: CD-1 female mice, MRSA ATCC 33591, 2.5 mg/kg intravenous one hour post infection
S. aureus ATCC 33591 = test: Neutropenic mouse thigh infection model; assay type: in vivo; settings: single dose of 50 mg/kg, thigh load at 26 hours
Description: The compound of Formula (III) was next evaluated in a neutropenic mouse thigh infection model against S. aureus ATCC 33591. For the study, mice challenged with S. aureus ATCC 33591 were intravenously administered two 5 mg/kg, 10 mg/kg, 20 mg/kg and 30 mg/kg doses of the compound of Formula (III) at 2 and 4 hours post-infection, or vancomycin as a single dose of 50 mg/kg as a control. The bacterial load in the thigh at 26 hours post-infection was measured.

CN[C@H](CC(C)C)C(=O)N[C@H]1C(=O)N[C@@H](CC(N)=O)C(=O)N[C@H]2C(=O)N[C@H]3C(=O)N[C@H](C(=O)N[C@H](C(=O)O)c4cc(O)cc(O)c4-c4cc3ccc4O)[C@H](O)c3ccc(c(Cl)c3)Oc3cc2cc(c3O[C@@H]2O[C@H](CO)[C@@H](O)[C@H](O)[C@H]2O[C@H]2C[C@](C)(N)[C@H](O)[C@H](C)O2)Oc2ccc(cc2Cl)[C@H]1O [vancomycin]
survival (MRSA ATCC 33591): all survived | CFU reduction from the 2 hour infection controls (S. aureus ATCC 33591): 0.54 log10 CFU | CFU reduction from the 26 hour infection controls (S. aureus ATCC 33591): 3.65 log10 CFU
